{"source": "patent EP0434057B1", "about": "“Indolocarbazole derivatives, processes for their preparation and their use” (GÖDECKE AKTIENGESELLSCHAFT, priority 1989, dated 1991)", "key": {"[1]": {"biological_target": "Myosin Light Chain Kinase (MLC-Kinase) (Gallus gallus, UniProt P11799)", "sequence (P11799 935-1906)": "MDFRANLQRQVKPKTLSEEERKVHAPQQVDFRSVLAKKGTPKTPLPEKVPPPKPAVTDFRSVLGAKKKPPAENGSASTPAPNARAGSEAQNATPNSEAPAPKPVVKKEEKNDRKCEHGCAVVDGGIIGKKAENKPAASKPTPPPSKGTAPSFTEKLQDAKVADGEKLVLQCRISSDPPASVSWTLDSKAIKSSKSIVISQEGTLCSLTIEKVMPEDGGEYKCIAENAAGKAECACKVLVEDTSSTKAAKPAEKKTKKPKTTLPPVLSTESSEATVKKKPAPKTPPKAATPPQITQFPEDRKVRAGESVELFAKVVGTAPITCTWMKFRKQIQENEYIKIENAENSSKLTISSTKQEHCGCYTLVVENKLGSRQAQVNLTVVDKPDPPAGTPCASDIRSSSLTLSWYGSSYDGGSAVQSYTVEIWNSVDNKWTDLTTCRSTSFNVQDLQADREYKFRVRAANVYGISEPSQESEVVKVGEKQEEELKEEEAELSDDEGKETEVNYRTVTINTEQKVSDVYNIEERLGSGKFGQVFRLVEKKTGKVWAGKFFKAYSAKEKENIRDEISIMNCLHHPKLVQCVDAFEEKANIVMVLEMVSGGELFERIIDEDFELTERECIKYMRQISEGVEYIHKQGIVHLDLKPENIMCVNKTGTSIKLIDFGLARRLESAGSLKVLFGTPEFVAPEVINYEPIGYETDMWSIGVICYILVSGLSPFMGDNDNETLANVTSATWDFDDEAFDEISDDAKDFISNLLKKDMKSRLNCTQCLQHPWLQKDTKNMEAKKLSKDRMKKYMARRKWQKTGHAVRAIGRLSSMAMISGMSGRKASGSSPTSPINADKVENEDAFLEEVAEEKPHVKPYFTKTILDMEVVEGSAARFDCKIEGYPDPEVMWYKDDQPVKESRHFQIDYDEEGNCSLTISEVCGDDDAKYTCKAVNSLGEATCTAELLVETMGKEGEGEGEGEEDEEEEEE", "experiment": "Inhibition of myosin light chain kinase (literature method)", "format": "biochemical", "settings": "read-out: Inhibierung von Proteinkinasen (IC50, µM) MLC-Kinase", "description": "(§1) Die Bestimmung der Inhibierung von A-, G-, MLC- oder T-Kinase erfolgte nach den in der Literatur beschriebenen Verfahren (Gill, G.N., Walton M., Advances in cyclic nucleotide research, Vol. 10, herausgegeben von G. Brooker und G.A. Robinson, Raven Press, New York, 1979; Eur. J. Biochem. 1986, 158, 203; Biochem. J. 1984, 218, 863; Analyt. Biochem. 1983, 135, 37; Mol. Immunol. 1989, 26, 897)."}, "[2]": {"biological_target": "tyrosinspezifischen Kinase (T-Kinase)", "experiment": "Inhibition of tyrosine-specific kinase (literature method)", "format": "biochemical", "settings": "read-out: Inhibierung von Proteinkinasen (IC50, µM) T-Kinase", "description": "as §1"}, "Proteinkinase C (PKC)": {"biological_target": "Proteinkinase C (PKC)", "experiment": "Enzyme assay: inhibition of protein kinase C activated with phosphatidylserine and diacylglycerol (according to EP-A-0 255 126)", "format": "biochemical"}, "[3]": {"biological_target": "T1, cGMP-abhängigen Proteinkinase (G-Kinase) (Bos taurus, UniProt P00516)", "T1 sequence (P00516 2-671)": "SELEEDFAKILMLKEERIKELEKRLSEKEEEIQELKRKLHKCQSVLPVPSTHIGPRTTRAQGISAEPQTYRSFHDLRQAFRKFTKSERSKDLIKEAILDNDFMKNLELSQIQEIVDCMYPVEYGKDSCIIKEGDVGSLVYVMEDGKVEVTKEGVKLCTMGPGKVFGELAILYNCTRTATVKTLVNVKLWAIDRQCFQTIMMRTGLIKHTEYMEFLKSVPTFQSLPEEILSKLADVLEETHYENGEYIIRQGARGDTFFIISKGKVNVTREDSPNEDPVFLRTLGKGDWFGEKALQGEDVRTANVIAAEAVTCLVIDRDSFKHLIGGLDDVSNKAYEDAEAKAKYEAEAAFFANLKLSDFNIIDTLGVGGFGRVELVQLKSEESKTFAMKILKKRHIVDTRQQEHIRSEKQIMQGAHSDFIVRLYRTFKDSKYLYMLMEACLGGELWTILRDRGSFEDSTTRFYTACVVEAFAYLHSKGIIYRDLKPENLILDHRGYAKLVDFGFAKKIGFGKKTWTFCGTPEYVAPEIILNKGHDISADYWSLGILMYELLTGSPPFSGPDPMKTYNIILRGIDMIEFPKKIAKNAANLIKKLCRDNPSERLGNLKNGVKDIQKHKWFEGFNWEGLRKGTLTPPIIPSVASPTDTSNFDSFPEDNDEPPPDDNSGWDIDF", "experiment": "Inhibition of cGMP-dependent protein kinase (literature method)", "format": "biochemical", "settings": "read-out: Inhibierung von Proteinkinasen (IC50, µM) G-Kinase", "description": "as §1"}, "[4]": {"biological_target": "tyrosinspezifischen Kinase (T-Kinase)", "settings": "read-out: Inhibierung von Proteinkinasen (IC50, µM) T-Kinase; value marked *: J. Antibiot. 1987, 40, 1782; cited from earlier work"}}, "note": "Where two headings read alike, the source gives them in different places.", "data": [{"molecule": "Cn1c2ccccc2c2c3c(c4c5ccccc5n(CCC#N)c4c21)CNC3=O", "note": "[Beispiel 2, 12-(2-Cyanoethyl)-6,7,12,13-tetrahydro-13-methyl-5-oxo-5H-indolo[2,3-a]pyrrolo[3,4-c]carbazol]", "values": [{"measurement": "IC50", "setting": "[1]", "result": 5.8, "unit": "µM"}, {"measurement": "IC50", "setting": "[2]", "result": 25, "unit": "µM"}, {"measurement": "IC50", "setting": "Proteinkinase C (PKC); PKC activated with Phosphatidylserin and Diacylglycerol, read-out: 50%ige Inhibierung bei einer Konzentration von", "result": 0.02, "unit": "µM"}, {"measurement": "IC50", "setting": "Proteinkinase C (PKC); read-out: Inhibierung von Proteinkinasen (IC50, µM) PKC", "result": 0.02, "unit": "µM"}, {"measurement": "IC50", "setting": "[3]", "result": 6.2, "unit": "µM"}]}, {"molecule": "CN[C@@H]1C[C@H]2O[C@@](C)([C@@H]1OC)n1c3ccccc3c3c4c(c5c6ccccc6n2c5c31)C(=O)NC4", "note": "[Staurosporin]", "values": [{"measurement": "IC50", "setting": "[4]", "result": 0.006, "unit": "µM"}]}]}
